# Results published in PMC4507174, “Sulfonoquinovosyl diacylglyceride selectively targets acute lymphoblastic leukemia cells and exerts potent anti-leukemic effects in vivo” (Scientific Reports, 2015).
# Experiments:
# [1] = molecular target: T1, human DNA topoisomerase I (Homo sapiens, UniProt P11387); test: DNA relaxation assay with enzyme preincubation; also EMSA and cleavage assays; assay type: biochemical
# T1 construct: gene TOP1
# T1 sequence (P11387 2-765): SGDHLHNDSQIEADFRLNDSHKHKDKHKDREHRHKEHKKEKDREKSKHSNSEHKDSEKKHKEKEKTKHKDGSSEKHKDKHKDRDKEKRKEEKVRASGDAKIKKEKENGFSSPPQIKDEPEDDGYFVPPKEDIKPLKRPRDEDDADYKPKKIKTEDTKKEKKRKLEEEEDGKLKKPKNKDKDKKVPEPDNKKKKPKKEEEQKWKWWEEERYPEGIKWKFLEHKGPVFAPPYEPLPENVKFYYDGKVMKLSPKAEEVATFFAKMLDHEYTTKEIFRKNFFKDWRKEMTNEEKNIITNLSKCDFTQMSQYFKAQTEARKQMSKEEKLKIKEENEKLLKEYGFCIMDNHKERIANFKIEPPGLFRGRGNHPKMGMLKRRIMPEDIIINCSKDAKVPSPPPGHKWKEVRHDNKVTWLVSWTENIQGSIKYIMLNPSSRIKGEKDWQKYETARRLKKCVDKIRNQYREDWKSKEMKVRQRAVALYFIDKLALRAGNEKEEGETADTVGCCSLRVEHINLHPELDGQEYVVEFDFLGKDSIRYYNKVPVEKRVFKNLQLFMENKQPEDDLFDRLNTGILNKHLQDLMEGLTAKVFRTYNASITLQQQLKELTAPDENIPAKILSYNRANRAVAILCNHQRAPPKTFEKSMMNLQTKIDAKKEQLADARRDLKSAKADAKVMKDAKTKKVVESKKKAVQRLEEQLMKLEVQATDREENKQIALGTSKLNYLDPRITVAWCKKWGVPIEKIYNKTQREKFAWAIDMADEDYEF
# [2] = molecular target: T1, human DNA topoisomerase I; test: oligonucleotide cleavage assay:[…] BA added before […] CPT; assay type: biochemical
Structure (SMILES),IC100 [1],oligonucleotide cleavage assay: 20 uM BA added before 20 uM CPT [2]
CCCCCCCCCCCCCCCC(=O)OC[C@H](CO[C@H]1O[C@H](CS(=O)(=O)O)[C@@H](O)[C@H](O)[C@H]1O)OC(=O)CCCCCCCCCCCCCCC [SQDG],1.5 µM,
C=C(C)[C@@H]1CC[C@]2(C(=O)O)CC[C@]3(C)[C@H](CC[C@@H]4[C@@]5(C)CC[C@H](O)C(C)(C)[C@@H]5CC[C@]43C)[C@@H]12 [Betulinic acid],,SQDG/BA abrogates CPT mediated topo I-oligo covalent complex formation
